# Reference: patent publication US4031205A, “Method for treating nervous bladder” (priority 1975, dated 1977)
# Legend:
# mice of ICR-JCL strain = assay: Acute toxicity test in mice; conditions: for Maximum dose (no case of deaths): single dose, 7 days observation
# From the text: (§1) In order to evaluate the acute toxicity of a single high dose administration of Ubiquinone 10(CoQ10), male and female rats of Wistar strain and male and female mice of ICR-JCL strain were used, and oral, intramuscular, subcutaneous, and intravenous administrations were studied. For the oral administration of Ubiquinone 10(CoQ10), gum Arabic suspension was used. For the intramuscular, subcutaneous, and intravenous administrations, Ubiquinone 10(CoQ10) is used as its solution in surfactant, hydrogenated castor oil ethylene oxide addition product (HCO-60).
# (§2) Observation was carried out for 7 days, by using six males and six females for each dose group.
# rabbits = assay: Subacute oral toxicity test in rabbits
# From the text: (§3) Ubiquinone 10(CoQ10) was compulsorily and orally administered every day for 23 days to each group consisting of six male rabbits and five female rabbits. […] On the 24th day, blood samples were collected from all the animals, and three males and two females from each group were then selectively autopsied.
# [1] = in vivo
# From the text: as §1, §2
# The dose was 40, 200, and 1000 mg/Kg/day, respectively.
# as §3
# mice = assay: Teratogenesis test in mice; assay type: in vivo, mouse; conditions: 6, 60, and 600 mg/Kg/day
# rats of Wistar strain [2] = assay: Acute toxicity test in rats; conditions: for Maximum dose (no case of deaths): single dose, 7 days observation
# From the text: as §1, §2
# rats of Wistar strain [3] = assay: Chronic oral toxicity test
# Method: Ubiquinone 10(CoQ10) was compulsorily and orally administered to each group consisting of 10 male rats and 10 female rats of Wistar strain for consecutive 26 weeks in a ratio of 6 days a week. The dose was 6, 60 and 600 mg/Kg/day, respectively. ubiquinone 10(CoQ10) was used in the form of gum Arabic suspension, whereas the solution containing gum Arabic alone is used as the control group. Collection of blood and urine samples and autopsies were carried out 26 weeks after the administration.
# [4] = Clinical test: effectiveness of Ubiquinone 10(CoQ10) for nervous bladder; assay type: in vivo, human; design: Pressure curve Volume: unit not given beside the values; Residual urine / Urethral R. (Resistance): unit not given here
# Method: Six patients compalining of dysuria and incontinentia urinac due to nervous bladder were made sujects. Case 1 was nocturnal enuresis of unknown cause, Cases 2-4 were impairement of root of spinal nerve (nuclear type), and Cases 5 and 6 were spinal impairements (supra nuclear type).
# Hard capsules containing 5 mg of Ubiquinone 10(CoQ10) in the present invention were orally administered.
# The dose of 1-3 capsules each time was orally administered 3 times a day after meals for consecutive 3-4 weeks as a rule. Depending on cases, 10 mg of Ubiquinone 10(CoQ10) was concurrently injected. The measurement of bladder functions, that is, the measurement of the pressure curve in the bladder, was carried out in accordance with any conventional method. However, the quantitative bladder crystometrographic curve (BR) was obtained by a modified method for the crystometry. More particularly, the curve was prepared by observing the condition of weak autonomic rhythmical contraction of the bladder wall, when the sensitivity and the recording rate of a crystometer were risen after the infusion of a certain amount of the solution.
# rats of Wistar strain [5] = conditions: rat, in vivo, po
# Method: (§4) Ubiquinone 10(CoQ10) was compulsorily and orally administered every day for 5 weeks to each group consisting of 10 male rats and 10 female rats of Wistar strain. The dose was 40, 200, and 1000 mg/Kg/day, respectively. Ubiquinone 10(CoQ10) was used in the form of gum Arabic suspension, while the solution containing gum Arabic alone was used as the control group. Collection of blood and urine samples and autopsies were carried out 5 weeks after the initiation of administration.
# rats = assay: Teratogenesis test in rats; assay type: in vivo, rat; conditions: 6, 60, and 600 mg/Kg/day
# rats of Wistar strain [6] = assay: Subacute toxicity test in rats
# Method: as §4
# [7] = Physical and chemical properties: solubility; assay type: physicochemical
# From the text: Ubiquinone n, for example, Ubiquinone 10(CoQ10), can be mainly obtained synthetically, though it is possible to extract the Ubiquinone from animal organs. Physical and chemical properties of Ubiquinone 10(CoQ10) produced synthetically are as follows.
# [8] = 6, 60, 600 mg/Kg/day oral, 23 days
# [9] = 6, 60, 600 mg/Kg/day oral, 26 weeks
# [10] = spontaneous pneumonia and aspiration pneumonia due to erroneous administration, group not stated
# [11] = Case 1, 20 days with 3 capsules
# [12] = Case 1, 20 days with 3 capsules, After (Before: +)
# [13] = Case 2, 30 days with 3 OR 20 days with 4 capsules
# [14] = Case 3, 30 days with 1 OR 3 capsules
# [15] = Case 4, 30 days with 3 capsules
# [16] = Case 5, 50 days with 1 capsule, After (Before: ++)
# [17] = Case 6, 30 days with 3 capsules
smiles,measurement,setting,value
COC1=C(OC)C(=O)C(CC=C(C)CCC=C(C)CCC=C(C)CCC=C(C)CCC=C(C)CCC=C(C)CCC=C(C)CCC=C(C)CCC=C(C)CCC=C(C)C)=C(C)C1=O [Ubiquinone 10(CoQ10)],deaths,"mice of ICR-JCL strain; mice, at the maximum dose in each administration route",no case of deaths
same,Maximum dose (no case of deaths),"mice of ICR-JCL strain; mice, intramuscular",500 mg/kg
same,Maximum dose (no case of deaths),"mice of ICR-JCL strain; mice, intravenous",250 mg/kg
same,Maximum dose (no case of deaths),"mice of ICR-JCL strain; mice, oral",4000 mg/kg
same,Maximum dose (no case of deaths),"mice of ICR-JCL strain; mice, subcutaneous",500 mg/kg
same,LD50,"mice of ICR-JCL strain; mice, maximum doses of Table 1",far higher than the maximum dose mentioned above
same,"general condition, body weight, food intake and autopsy findings","mice of ICR-JCL strain; mouse, in vivo",no change was recognized
same,general condition and increase of body weight vs control,rabbits; [8],no difference
same,weight of each organ,rabbits; [8],no effect
same,hematological test and biochemical test of blood,"rabbits; 6, 60, 600 mg/Kg/day oral, 23 days, 24th day",Abnormal findings were not obtained
same,macroscopical and histological observation,"rabbits; hematoxylin.Eosine staining and liver fat staining, 23 days oral",abnormalities were not recognized
same,electron-microscopic observation of liver (minute structure),"rabbits; seventh, 14th and 24th days",there were not recognized abnormal findings
same,toxicity (overall),"rabbits; subacute oral, 23 days",there were not recognized the findings wherein the toxicity of Ubiquinone 10(CoQ10) will be suggested
same,overall safety,[1],"a very safe drug, without side-effects"
same,"adverse effects in mothers, fetuses, and newborns",mice,no adverse effects were noted
same,"general condition, body weight, food intake and autopsy findings","rats of Wistar strain [2]; rat, in vivo",no change was recognized
same,deaths,"rats of Wistar strain [2]; rats, at the maximum dose in each administration route",no case of deaths
same,Maximum dose (no case of deaths),"rats of Wistar strain [2]; rats, intramuscular",500 mg/kg
same,Maximum dose (no case of deaths),"rats of Wistar strain [2]; rats, intravenous",250 mg/kg
same,Maximum dose (no case of deaths),"rats of Wistar strain [2]; rats, oral",4000 mg/kg
same,Maximum dose (no case of deaths),"rats of Wistar strain [2]; rats, subcutaneous",500 mg/kg
same,LD50,"rats of Wistar strain [2]; rats, maximum doses of Table 1",far higher than the maximum dose mentioned above
same,biochemical tests of blood and urine vs control,rats of Wistar strain [3]; [9],No significant change
same,body weight,rats of Wistar strain [3]; [9],increased as same as that of the control group
same,weight of organ,rats of Wistar strain [3]; [9],no significant increase and decrease
same,general condition vs control,"rats of Wistar strain [3]; 6, 60, 600 mg/Kg/day oral, 6 days a week, 26 weeks",no difference
same,toxicity (overall),"rats of Wistar strain [3]; chronic oral, 26 weeks",no toxicity was observed
same,macroscopical and histological observation vs control,"rats of Wistar strain [3]; hemoxylin.Eosine staining and liver fat staining, 26 weeks",abnormalities were not recognized
same,leukocytal percentages,"rats of Wistar strain [3]; some increase and decrease, not dose dependent, 26 weeks",within extent of physiological fluctuations
same,"animals died, females",rats of Wistar strain [3]; [10],3
same,"animals died, males",rats of Wistar strain [3]; [10],11
same,Residual urine,"[4]; Case 1 (nocturnal enuresis), 20 days with 3 capsules, After (Before: 35)",5
same,Effectiveness: Volume,[4]; [11],increased
same,Evaluation,[4]; [11],Effective
same,Urethral R. (Resistance),"[4]; Case 1, 20 days with 3 capsules, After (Before: 110)",100
same,Pressure curve Volume,"[4]; Case 1, 20 days with 3 capsules, After (Before: 295)",340
same,Basal Pressure BR,[4]; [12],Normal
same,Basal Pressure SR,[4]; [12],Normal
same,Residual urine,"[4]; Case 2 (spina bifida), 30 days with 3 capsules OR 20 days with 4 capsules, After (Before: 0)",0
same,Effectiveness: Volume,[4]; [13],increased
same,Evaluation,[4]; [13],Unchanged
same,Urethral R. (Resistance),"[4]; Case 2, 30 days with 3 OR 20 days with 4 capsules, After (Before: 30)",33
same,Pressure curve Volume,"[4]; Case 2, 30 days with 3 OR 20 days with 4 capsules, After (Before: 90)",110
same,Residual urine,"[4]; Case 3 (spina bifida), 30 days with 1 capsule OR 30 days with 3 capsules, After (Before: 75)",65
same,Effectiveness: Curve,[4]; [14],improved
same,Effectiveness: Residual urine,[4]; [14],decreased
same,Effectiveness: Volume,[4]; [14],increased
same,Evaluation,[4]; [14],Effective
same,Pressure curve Volume,"[4]; Case 3, 30 days with 1 OR 3 capsules, After (Before: 150)",200
same,Residual urine,"[4]; Case 4 (spina bifida), 30 days with 3 capsules, After (Before: 95)",70
same,Effectiveness: Anischuria,[4]; [15],improved
same,Effectiveness: BR,[4]; [15],appeared
same,Effectiveness: Volume,[4]; [15],increased
same,Urethral R. (Resistance),"[4]; Case 4, 30 days with 3 capsules, After (Before: 45)",49
same,Pressure curve Volume,"[4]; Case 4, 30 days with 3 capsules, After (Before: 130)",345
same,Basal Pressure BR,"[4]; Case 4, 30 days with 3 capsules, After (Before: ±)",Normal
same,Residual urine,"[4]; Case 5 (paraplegia), 50 days with 1 capsule, After (Before: 20)",0
same,Effectiveness: BR SR,"[4]; Case 5, 50 days with 1 capsule",normalized
same,Effectiveness: Curve,"[4]; Case 5, 50 days with 1 capsule",improved
same,Urethral R. (Resistance),"[4]; Case 5, 50 days with 1 capsule, After (Before: 76)",73
same,Pressure curve Volume,"[4]; Case 5, 50 days with 1 capsule, After (Before: 240)",260
same,Basal Pressure BR,[4]; [16],Normal
same,Basal Pressure SR,[4]; [16],Normal
same,Pressure curve Volume,"[4]; Case 6 (Myelitis Adhesiva), 30 days with 3 capsules, After (Before: 150)",150
same,Effectiveness: Curve,[4]; [17],improved
same,Effectiveness: SR,[4]; [17],improved
same,Pressure curve Type,"[4]; Case 6, 30 days with 3 capsules, After (Before: Reflex)",Reflex
same,"effective results and markedly effective results, number of cases",[4]; among the 6 cases,5 cases
same,macroscopical and histological observation,rats of Wistar strain [5],abnormality was not recognized
same,"adverse effects in mothers, fetuses, and newborns",rats,no adverse effects were noted
same,dead animals during the experiment,"rats of Wistar strain [6]; spontaneous pneumonia and aspiration pneumonia due to error of administration, group not stated",4
same,toxicity (overall),"rats of Wistar strain [6]; subacute oral, 5 weeks",there was not recognized the toxicity
same,solubility,[7]; acetone,soluble
same,solubility,[7]; benzene,easily soluble
same,solubility,[7]; carbon tetrachloride,easily soluble
same,solubility,[7]; chloroform,easily soluble
same,solubility,[7]; ethanol,insoluble
same,solubility,[7]; ether,soluble
same,solubility,[7]; methanol,hardly soluble
same,solubility,[7]; water,hardly soluble
